These results are taken from article PMC9413440, “An Iterative Approach Guides Discovery of the FabI Inhibitor Fabimycin, a Late-Stage Antibiotic Candidate with In Vivo Efficacy against Drug-Resistant Gram-Negative Infections” (ACS Central Science, 2022).

One data set deals with E. coli MG1655. The experiment in a line: Selection of resistant mutants, mutant prevention concentration. The format is cell-based, Escherichia coli. The note with it: 32x MIC, 0 colonies. As to the method: Selection of resistant mutants
Resistant mutants were generated using the large inoculum method. Briefly, S. aureus 29213, E. coli MG1655, and A. baumannii 19606 (~1 x 1010 CFUs) was plated on 100-mm plates (E. coli and A. baumannii) or 150-mm plates (S. aureus) of MH agar containing either 128, 64, or 32 µg/mL fabimycin (for gram-negatives) or 0.125, 0.062, and 0.031 µg/mL fabimycin (for S. aureus). Plates were incubated at 37 °C for 48 h and counted for the presence of colony forming units.
Glycerol stocks of selected colonies were made, and resistant colonies confirmed by growing on agar plates containing the same concentration of fabimycin that they were generated at.
Sequencing of bacterial fabI
The FabI gene was amplified by PCR. Fabimycin-resistant colonies were picked and diluted in 100 µL sterile, nuclease-free H2O. […] A 10 µL portion of PCR reaction mixture was analyzed by agarose gel electrophoresis to confirm the single 1.4-kilobase pair product. […]
Candidate drugs were incubated with plasma and parent drug levels were monitored at various time points (generally t=0, 10, 20, 30, and 60 minutes) to determine the drug’s half-life in the presence of the chosen system. […] The supernatant was collected after centrifugation, and the sample analyzed by LC-MS where the percentage of compound remaining is plotted vs time to determine the drug’s half-life. […]

In a further data set the test system is human red blood cells. Nature of the data set: Human red blood cell hemolysis. The format is cell-based. The note with it: 200 μM; 2 hours at 37 °C. As to the method: drug is tested in duplicate. Compounds were diluted from 10mM DMSO stocks to 5 µM in mouse or human plasma (BioreclamationIVT, Baltimore, MD). The dialysis plate (Rapid Equilibrium Dialysis (RED) device; Thermo Scientific, Waltham, MA) was prepared by adding pH 7.4 phosphate buffer to one chamber of the RED device and dosing solution to the other chamber. The plate was sealed with an adhesive tape and incubated at 37 °C while shaking for 4 hours. Equal volumes of post-dialysis samples were removed from both the plasma and the buffer chambers into separate microcentrifuge tubes, and equal volumes (100µL) of fresh phosphate buffer and plasma were added to the tubes, respectively. […] Percentage binding is determined using the following equation: Binding % = (Concentration of test compound in plasma at equilibrium (Cpe) – Concentration of test compound in buffer at equilibrium (Cb)) / Cpe x 100. […]
Next, 10 µL of washed erythrocyte suspension was added to each tube and sealed. […] Absorbance was measured at 540 nm. […]
from Charles River were used. […] No additional randomization was used to allocate the experimental groups; blinding was not performed for subsequent quantitation.
The MTD of a single dosage of a given compound was determined before evaluating the MTD of multiple dosages. […]
weeks (single dose). The single-dose MTDs were determined first. […]

Consider `Cc1c(CN(C)C(=O)/C=C/c2cnc3c(c2)CC[C@H](N)C(=O)N3)oc2ccccc12` [fabimycin], for which the “mutant prevention concentration (MPC)” value in the data set with E. coli MG1655 was 64 µg/mL. Besides, the “lysis of human red blood cells” value in the data set on human red blood cells is listed as “nonhemolytic”.
